From PubChem BioAssay (NCI)
Several values for one entry are separate records, joined by “and”; a condition that tells them apart may be missing. Equal entries are not always repeated.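 Step 1: Grow cells in 96-well plates. Step 2: Expose to compound for 48 hours at 5 concentrations. Step 3: Interpolate endpoints linearly; if unreached, use highest concentration. GI50: concentration for 50% inhibition of growth. Definition used: TGI = concentration required for complete inhibition of growth.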

System: MDA-MB-468 breast
Test: DTP human tumour cell line panel, 48 h

| SMILES | GI50 | TGI |
| --- | --- | --- |
| Cc1cc(-c2cc(O)ccc2Cl)cc2nnc(Nc3ccc(OCCN4CCCC4)cc3)nc12 | 583 nM | 2040 nM |
| c1ccc(CNCCN(CCNCc2ccccn2)Cc2ccc3ccccc3c2)nc1 | 2180 nM | 4920 nM |
| COc1cc(C2c3cc4c(cc3C(OC(=O)C[n+]3ccccc3)C3COC(=O)C23)OCO4)cc(OC)c1OC (configuration not stated) | 24.2 nM | 77.7 nM |
| CN1C(=O)[C@]23SSC1(C)C(=O)N2[C@H]1Nc2ccccc2C1([C@@]12c4ccccc4N[C@@H]1N1C(=O)C4(C)SS[C@]1(C(=O)N4C)[C@H]2O)[C@@H]3O (some centres not stated) | 35.1 nM and 115 nM | 103 nM and 322 nM |
| CO[C@H]1CC(O[C@@H]2/C(C)=C/C[C@@H]3C[C@@H](C[C@]4(CC[C@H](C)[C@@H](C5CCCCC5)O4)O3)OC(=O)[C@@H]3C=C(C)/C(=N/O)[C@H]4OC/C(=C\C=C\[C@@H]2C)[C@]43O)O[C@@H](C)C1O (some centres not stated) | 793 nM | 1760 nM |
| Cc1cc(C)c(-c2c(N)cc(Br)cc2Br)c(N)c1 | 2240 nM | 5760 nM |
| CC(=O)[C@H]1CCC/C=C/[C@@H]2C[C@H](O)C[C@H]2[C@H](O)/C=C/C(=O)O1 | 159 nM | 687 nM |
| Cc1cc(Nc2nc(N[C@@H](C)c3ncc(F)cn3)ncc2Cl)n[nH]1 | 18200 nM | 52100 nM |
| COc1cc(C(=O)c2cnc(-c3cccc4[nH]ccc34)[nH]2)cc(OC)c1OC | 64.6 nM and < 10 nM | 88700 nM |
| Clc1ccccc1-c1nnc2c(Cc3ccccc3)nc3ccccc3n12 | 5240 nM | > 100000 nM |
| CCN(CC)CCCC(C)N/C(=C1\C(=O)NC(=O)\C1=C(/NC(C)CCCN(CC)CC)c1cccc(OC)c1)c1cccc(OC)c1 (configuration not stated) | 762 nM | 1750 nM |
| CC(=O)C1=C(O)C=C2Oc3c(C(=O)/C=C/c4cc(Cl)cc(Cl)c4)c(O)c(C)c(O)c3[C@]2(C)C1=O | 529 nM | 1340 nM |
| Cc1cc(Nc2cc(N3CCN(C)CC3)nc(/C=C/c3ccccc3)n2)n[nH]1 | 590 nM | 2440 nM |
| O=S(=O)(Nc1ccc(I)c(Cl)c1)c1ccc(-c2cnc(C3CC3)o2)cc1 | 314 nM | 2650 nM |
| C#CCN(c1ccc(C(=O)N[C@@H](CCC(=O)N[C@H](CCC(=O)O)C(=O)O)C(=O)O)cc1)C1CCc2cc3nc(CO)[nH]c(=O)c3cc21 (some centres not stated) | > 23100 nM | > 100000 nM |
| CN1CCN(Cc2ccc(NC(=O)c3cncc(C#Cc4cnc(N)c5cccnc45)c3)cc2C(F)(F)F)CC1 | 698 nM | > 50000 nM |
| Cc1cc2c(-c3nc4ccccn4c3N)c(O)c(O)cc2c(O)c1-c1c(C)cc2c(-c3nc4ccccn4c3N)c(O)c(O)cc2c1O | 538 nM | 3520 nM |
| CCNC(=O)Oc1ccc(/C(=C(/C)Cc2ccc(OC)cc2)c2ccc(OCCN(CC)CC)cc2)cc1 | 1630 nM | 3460 nM |
| CC(C)COc1nc2c(c(=O)n(C)c(=O)n2C)n1C | > 100000 nM | > 100000 nM |
| CCN(Cc1cccc(Cl)c1)c1ccc(CO)c(Cl)c1 | 25 nM | 81.7 nM |
| N#Cc1cnc(Nc2cc(NC[C@H]3CNCCO3)c(C(F)(F)F)cn2)cn1 | 16400 nM | 37400 nM |
| CC(=O)c1cc(C(=O)c2ccc3c(c2)Sc2ccccc2N3)n2ccccc12 | 2.56 nM and 3.32 nM | – |
| COc1ccc([C@@]23Oc4cc(OC)cc(OC)c4[C@]2(O)[C@H](O)[C@H](C(N)=O)[C@H]3c2ccccc2)cc1 | < 10 nM | 45.8 nM |
| CCOc1ccn(-c2ccc(F)cc2)c(=O)c1C(=O)Nc1ccc(Oc2ccnc(N)c2Cl)c(F)c1 | 5700 nM | 34800 nM |
| Cn1cc(-c2cnn3c(N)c(Br)c(C4CCCNC4)nc23)cn1 (configuration not stated) | 11100 nM | 44100 nM |
| O=[N+]([O-])c1cc([N+](=O)[O-])c(Nn2c3ccccc3c3ccccc32)c([N+](=O)[O-])c1 | 274 nM | 782 nM |
| CN1CCN(C(=O)COc2ccc(/C=C3\CC4C5CC=C6CC(Cl)CCC6(C)C5CCC4(C)C3=O)cc2)CC1 (configuration not stated) | 6030 nM | > 100000 nM |
| CCCCCCCC/C=C/CCCCCCCC1=NC(C)(C)CN1CCO | 1670 nM | 3210 nM |
| CSc1nc2c(c(=O)n1C)CN(C1CCCCC1)C(=O)C(c1ccccc1)N2 (configuration not stated) | 52200 nM | > 100000 nM |
